In patent US9902725B2, “Heterocyclic derivatives as RORgamma modulators” (GENFIT, priority 2014, dated 2018):

Target: T1, RORγt ligand-binding domain (RORγt-LBD) (Homo sapiens, UniProt P51449)
T1 construct: 20 nM recombinantly expressed RORγ-LBD fused to GST
T1 sequence (P51449 269-508 limits assumed): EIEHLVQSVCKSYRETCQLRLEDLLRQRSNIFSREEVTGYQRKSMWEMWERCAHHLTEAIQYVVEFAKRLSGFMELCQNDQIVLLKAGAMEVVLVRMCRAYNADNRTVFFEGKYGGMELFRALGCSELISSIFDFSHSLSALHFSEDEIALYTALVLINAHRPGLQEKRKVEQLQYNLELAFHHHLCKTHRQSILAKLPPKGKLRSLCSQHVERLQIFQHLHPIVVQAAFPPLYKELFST
Assay: Time-resolved FRET (TR-FRET) RORγt coactivator assay
Assay type: biochemical
Details: GST-RORγ-LBD, biotinylated RIP140 peptide, coactivator displacement
From the text: Time-resolved FRET (TR-FRET) RORγt coactivator assay was used to identify RORγ modulator compounds with ligand-dependent coactivator displacement. The assay uses a d2-labeled anti-GST antibody, synthetic N-terminally biotinylated peptide which is derived from nuclear receptor coactivator protein RIP140, and a RORγt ligand-binding domain (RORγt-LBD) that is tagged with glutathione-S-transferase (GST). The influence of compounds on the RORγ-peptide interaction relies on the binding dependent energy transfer from a donor to an acceptor fluorophore attached to the binding partner of interest. […] For reduction of background from compound fluorescence, TR-FRET method makes use of generic fluorophore labels and time resolved detection.
The assays were done in a final volume of 20 μl in a 384 well plate in a CHAPS buffer (2 mM CHAPS; 1 mM DTT, 2 mM EDTA; 0.1% BSA), containing 20 nM recombinantly expressed RORγ-LBD fused to GST, 30 nM N-terminally biotinylated peptide, 1 nM streptavidin-terbium conjugate and 20 nM d2 labeled-anti-GST. Test compounds were diluted using 10 mM stock solution. The range of the final compound concentrations used in this test was from 0.3 nM to 30 μM (logarithmic scale). DMSO content of the samples was kept at 1%. The assay was equilibrated for 2 hours in the dark at room temperature in 384 well plates (Falcon). The signal was detected by an Ultra384 reader (TECAN). The results were visualized by plotting the ratio between the emitted light at 665 nm and 620 nm. A basal level of RORγ-peptide formation is observed in the absence of added compound. Compounds that promote coactivator displacement induce a concentration-dependent decrease in time-resolved fluorescent signal. Data were collected and analyzed using GraphPad Prism software (GraphPad Software V5.02, San Diego Calif. USA). IC50 in μM and Emax in % were reported for each compound.

IC50 [nM] | Compound
1000 to 10000 | CC(C)(C)OC(=O)CCc1c[nH]c2ccc(CC(=O)NC(c3ccccc3)c3ccccc3N3CCCCC3)cc12 (stereo not shown) [Cpd. 2, tert-butyl 3-{5-[({phenyl[2-(piperidin-1-yl)phenyl]methyl}carbamoyl)methyl]-1H-indol-3-yl}propanoate]
< 1000 | Cc1ccc(C(NC(=O)Cc2ccc3[nH]cc(CCC(=O)O)c3c2)c2ccccc2)c(C)c1 (stereo not shown) [Cpd. 11, 3-[5-({[(2,4-dimethylphenyl)(phenyl)methyl]carbamoyl}methyl)-1H-indol-3-yl]propanoic acid]
< 1000 | Cc1ccc(C)c(C(NC(=O)Cc2ccc3[nH]cc(CCC(=O)O)c3c2)c2ccccc2)c1 (stereo not shown) [Cpd. 13, 3-[5-({[(2,5-dimethylphenyl)(phenyl)methyl]carbamoyl}methyl)-1H-indol-3-yl]propanoic acid]
1000 to 10000 | Cc1cc(Cl)ccc1C(NC(=O)Cc1ccc2[nH]cc(CCC(=O)OC(C)(C)C)c2c1)c1ccccc1 (stereo not shown) [Cpd. 34, tert-butyl 3-[5-({[(4-chloro-2-methylphenyl)(phenyl)methyl]carbamoyl}methyl)-1H-indol-3-yl]propanoate]
< 1000 | COC(=O)Cc1c[nH]c2ccc(CC(=O)NC(c3ccccc3)c3ccccc3N3CCCCC3)cc12 (stereo not shown) [Cpd. 40, methyl 2-{5-[({phenyl[2-(piperidin-1-yl)phenyl]methyl}carbamoyl)methyl]-1H-indol-3-yl}acetate]
1000 to 10000 | Cc1ccc(Cl)c(C(NC(=O)Cc2ccc3[nH]cc(CCC(=O)OC(C)(C)C)c3c2)c2ccccc2)c1 (stereo not shown) [Cpd. 41, tert-butyl 3-[5-({[(2-chloro-5-methylphenyl)(phenyl)methyl]carbamoyl}methyl)-1H-indol-3-yl]propanoate]
10000 to 30000 | Cc1cc(F)ccc1C(NC(=O)Cc1ccc2[nH]cc(CCC(=O)OC(C)(C)C)c2c1)c1ccccc1 (stereo not shown) [Cpd. 45, tert-butyl 3-[5-({[(4-fluoro-2-methylphenyl)(phenyl)methyl]carbamoyl}methyl)-1H-indol-3-yl]propanoate]
1000 to 10000 | CC(C)(C)OC(=O)CCc1c[nH]c2ccc(CC(=O)NC(c3ccccc3)c3ccccc3N)cc12 (stereo not shown) [Cpd. 51, tert-butyl 3-[5-({[(2-aminophenyl)(phenyl)methyl]carbamoyl}methyl)-1H-indol-3-yl]propanoate]
1000 to 10000 | CN(C)c1ccccc1C(NC(=O)Cc1ccc2[nH]cc(CCC(=O)OC(C)(C)C)c2c1)c1ccccc1 (stereo not shown) [Cpd. 53, tert-butyl 3-{5-[({[2-(dimethylamino)phenyl](phenyl)methyl}carbamoyl)methyl]-1H-indol-3-yl}propanoate]
1000 to 10000 | CC(C)CC(NC(=O)Cc1ccc2[nH]cc(CCC(=O)OC(C)(C)C)c2c1)c1ccccc1N1CCOCC1 (stereo not shown) [Cpd. 57, tert-butyl 3-{5-[({3-methyl-1-[2-(morpholin-4-yl)phenyl]butyl}carbamoyl)methyl]-1H-indol-3-yl}propanoate]
< 1000 | N#Cc1ccc(C(NC(=O)Cc2ccc3[nH]cc(CCC(=O)O)c3c2)c2ccccc2)c(N2CCCC2)c1 (stereo not shown) [Cpd. 60, 3-{5-[({[4-cyano-2-(pyrrolidin-1-yl)phenyl](phenyl)methyl}carbamoyl)methyl]-1H-indol-3-yl}propanoic acid]
1000 to 10000 | CC(C)(C)OC(=O)CCc1c[nH]c2ccc(CC(=O)NC(c3ccccc3)c3cc(Cl)ccc3N3CCCCC3)cc12 (stereo not shown) [Cpd. 61, tert-butyl 3-{5-[({[5-chloro-2-(piperidin-1-yl)phenyl](phenyl)methyl}carbamoyl)methyl]-1H-indol-3-yl}propanoate]
< 1000 | COC(=O)Cc1c[nH]c2ccc(CC(=O)NC(c3ccccc3)c3ccc(Br)cc3N3CCCC3)cc12 (stereo not shown) [Cpd. 66, methyl 2-{5-[({[4-bromo-2-(pyrrolidin-1-yl)phenyl](phenyl)methyl}carbamoyl)methyl]-1H-indol-3-yl}acetate]
1000 to 10000 | COC(=O)Cc1c[nH]c2ccc(NC(=O)NC(c3ccccc3)c3ccccc3N3CCCCC3)cc12 (stereo not shown) [Cpd. 68, methyl 2-{5-[({phenyl[2-(piperidin-1-yl)phenyl]methyl}carbamoyl)amino]-1H-indol-3-yl}acetate]
< 1000 | COC(=O)Cc1c[nH]c2ccc(CC(=O)NC(c3ccccc3)c3ccccc3N(C)C)cc12 (stereo not shown) [Cpd. 70, methyl 2-{5-[({[2-(dimethylamino)phenyl](phenyl)methyl}carbamoyl)methyl]-1H-indol-3-yl}acetate]
< 1000 | COC(=O)Cc1c[nH]c2ccc(CC(=O)NC(c3ccccc3)c3ccccc3N3CCCC3)cc12 (stereo not shown) [Cpd. 72, methyl 2-{5-[({phenyl[2-(pyrrolidin-1-yl)phenyl]methyl}carbamoyl)methyl]-1H-indol-3-yl}acetate]
< 1000 | COC(=O)Cc1c[nH]c2ccc(CC(=O)NC(c3ccccc3)c3ccccc3N3CCCCCC3)cc12 (stereo not shown) [Cpd. 74, methyl 2-{5-[({[2-(azepan-1-yl)phenyl](phenyl)methyl}carbamoyl)methyl]-1H-indol-3-yl}acetate]
< 1000 | Cc1ccc(C(NC(=O)Cc2ccc3[nH]cc(CCC(=O)OC(C)(C)C)c3c2)c2ccccc2)c(N2CCOCC2)c1 (stereo not shown) [Cpd. 80, tert-butyl 3-{5-[({[4-methyl-2-(morpholin-4-yl)phenyl](phenyl)methyl}carbamoyl)methyl]-1H-indol-3-yl}propanoate]
1000 to 10000 | CC(C)(C)OC(=O)CCc1c[nH]c2ccc(CC(=O)NC(c3ccccc3)c3ccc(F)cc3N3CCCC3)cc12 (stereo not shown) [Cpd. 92, tert-butyl 3-{5-[({[4-fluoro-2-(pyrrolidin-1-yl)phenyl](phenyl)methyl}carbamoyl)methyl]-1H-indol-3-yl}propanoate]
1000 to 10000 | CC(C)(C)OC(=O)CCc1c[nH]c2ncc(NC(=O)NC(c3ccccc3)c3ccccc3N3CCCCC3)cc12 (stereo not shown) [Cpd. 94, tert-butyl 3-{5-[({phenyl[2-(piperidin-1-yl)phenyl]methyl}carbamoyl)amino]-1H-pyrrolo[2,3-b]pyridin-3-yl}propanoate]
1000 to 10000 | Cc1ccc(C(NC(=O)Cc2ccc3[nH]cc(CC(=O)O)c3c2)c2ccccc2)c(N2CCOCC2)c1 (stereo not shown) [Cpd. 97, 2-{5-[({[4-methyl-2-(morpholin-4-yl)phenyl](phenyl)methyl}carbamoyl)methyl]-1H-indol-3-yl}acetic acid]
1000 to 10000 | Cc1ccc(C(NC(=O)Cc2ccc3[nH]cc(CCC(=O)OC(C)(C)C)c3c2)c2ccc(C)s2)c(C)c1 (stereo not shown) [Cpd. 100, tert-butyl 3-[5-({[(2,4-dimethylphenyl)(5-methylthiophen-2-yl)methyl]carbamoyl}methyl)-1H-indol-3-yl]propanoate]
1000 to 10000 | Cc1ccc(C(NC(=O)Cc2ccc3[nH]cc(CCC(=O)OC(C)(C)C)c3c2)c2ccccc2)c(N2CCN(C)CC2)c1 (stereo not shown) [Cpd. 102, tert-butyl 3-{5-[({[4-methyl-2-(4-methylpiperazin-1-yl)phenyl](phenyl)methyl}carbamoyl)methyl]-1H-indol-3-yl}propanoate]
1000 to 10000 | CC(C)CC(NC(=O)Cc1ccc2[nH]cc(CCC(=O)OC(C)(C)C)c2c1)c1cccc2ccccc12 (stereo not shown) [Cpd. 104, tert-butyl 3-[5-({[3-methyl-1-(naphthalen-1-yl)butyl]carbamoyl}methyl)-1H-indol-3-yl]propanoate]
1000 to 10000 | CC(C)(C)OC(=O)CCc1c[nH]c2ccc(CC(=O)NC(c3ccccc3)c3ccccc3-n3cccc3)cc12 (stereo not shown) [Cpd. 106, tert-butyl 3-{5-[({phenyl[2-(1H-pyrrol-1-yl)phenyl]methyl}carbamoyl)methyl]-1H-indol-3-yl}propanoate]
